22 compounds from the NIST ThermoML archive (doi:10.1016/j.jct.2016.01.017) can be followed below.

The data set in a line: activity coefficient (dimensionless); of the first substance listed, at infinite dilution; xn = mol fraction of the nth substance listed. The conditions noted are these: 100 kPa, Liquid, Chromatography, x1 = 0.

SMILES strings stand for the structures. ± gives the expanded uncertainty stated by the source.

Turning to `Cc1ccccc1C` [1,2-dimethylbenzene] + CCCC[n+]1ccc(C#N)cc1.O=S(=O)([N-]S(=O)(=O)C(F)(F)F)C(F)(F)F, the activity coefficient (308.15 K) was 1.79 ± 0.15; the activity coefficient (318.15 K) stood at 1.89 ± 0.16; the activity coefficient (328.15 K) was 2 ± 0.17; the activity coefficient (338.15 K) was 2.1 ± 0.18; the activity coefficient (348.15 K) is 2.21 ± 0.19; the activity coefficient (358.15 K) worked out at 2.3 ± 0.2. Further, the activity coefficient (368.15 K) amounted to 2.39 ± 0.21.

On to `CCCOCCC` [dipropyl ether] + CCCC[n+]1ccc(C#N)cc1.O=S(=O)([N-]S(=O)(=O)C(F)(F)F)C(F)(F)F, for which the activity coefficient was 8.88 ± 0.77 (308.15 K); 8.84 ± 0.76 (318.15 K); 8.83 ± 0.76 (328.15 K); 8.78 ± 0.76 (338.15 K); 8.75 ± 0.76 (348.15 K); 8.73 ± 0.75 (358.15 K). The activity coefficient (368.15 K) came out at 8.71 ± 0.75.

Regarding `CCCCCCCCC` [nonane] + CCCC[n+]1ccc(C#N)cc1.O=S(=O)([N-]S(=O)(=O)C(F)(F)F)C(F)(F)F, the activity coefficient (308.15 K) came out at 92.9 ± 8; the activity coefficient (318.15 K) is 85.9 ± 7.4; the activity coefficient (328.15 K) is 79.8 ± 6.9; the activity coefficient (338.15 K) is 74.1 ± 6.4; the activity coefficient (348.15 K) was 69.4 ± 6; the activity coefficient (358.15 K) stood at 65.3 ± 5.7. The activity coefficient (368.15 K) was 61.5 ± 5.3.

`c1ccncc1` [pyridine] + CCCC[n+]1ccc(C#N)cc1.O=S(=O)([N-]S(=O)(=O)C(F)(F)F)C(F)(F)F: the activity coefficient (308.15 K) was determined as 0.47 ± 0.044; the activity coefficient (318.15 K) was determined as 0.5 ± 0.046; the activity coefficient (328.15 K) was found to be 0.53 ± 0.048; the activity coefficient (338.15 K) amounted to 0.56 ± 0.05; the activity coefficient (348.15 K) was 0.591 ± 0.052; the activity coefficient (358.15 K) came to 0.62 ± 0.054. Moreover, for the setting “368.15 K”, the activity coefficient worked out at 0.65 ± 0.056.

With `CCCC(C)=O` [pentan-2-one] + CCCC[n+]1ccc(C#N)cc1.O=S(=O)([N-]S(=O)(=O)C(F)(F)F)C(F)(F)F, the activity coefficient is, setting by setting: (308.15 K) 0.697 ± 0.06; (318.15 K) 0.739 ± 0.063; (328.15 K) 0.783 ± 0.066; (338.15 K) 0.824 ± 0.069; (348.15 K) 0.868 ± 0.072; (358.15 K) 0.909 ± 0.075. The activity coefficient (368.15 K) amounted to 0.95 ± 0.078.

For `C#CCCC` [1-pentyne] + CCCC[n+]1ccc(C#N)cc1.O=S(=O)([N-]S(=O)(=O)C(F)(F)F)C(F)(F)F, the activity coefficient runs as follows: (308.15 K) 3.4 ± 0.29; (318.15 K) 3.48 ± 0.3; (328.15 K) 3.56 ± 0.31; (338.15 K) 3.64 ± 0.31; (348.15 K) 3.7 ± 0.3; (358.15 K) 3.77 ± 0.33. In addition, the activity coefficient (368.15 K) is 3.84 ± 0.33.

On to `C=CCCCCCCCC` [1-decene] + CCCC[n+]1ccc(C#N)cc1.O=S(=O)([N-]S(=O)(=O)C(F)(F)F)C(F)(F)F, for which the activity coefficient (308.15 K) was determined as 59.4 ± 5.1; the activity coefficient (318.15 K) is 57.3 ± 5; the activity coefficient (328.15 K) came to 55.2 ± 4.8; the activity coefficient (338.15 K) worked out at 53.5 ± 4.6; the activity coefficient (348.15 K) was 51.8 ± 4.5; the activity coefficient (358.15 K) worked out at 50.4 ± 4.4. Further, the activity coefficient (368.15 K) is 49 ± 4.2.

Consider `CCC(C)(C)C` [2,2-dimethylbutane] + CCCC[n+]1ccc(C#N)cc1.O=S(=O)([N-]S(=O)(=O)C(F)(F)F)C(F)(F)F, for which the activity coefficient (308.15 K) was found to be 34.9 ± 3; the activity coefficient (318.15 K) worked out at 31.3 ± 2.7; the activity coefficient (328.15 K) was found to be 28.2 ± 2.4; the activity coefficient (338.15 K) turned out to be 25.6 ± 2.2; the activity coefficient (348.15 K) came out at 23.4 ± 2; the activity coefficient (358.15 K) is 21.4 ± 1.9. Besides, the activity coefficient (368.15 K) came to 19.7 ± 1.7.

Turning to `CCC(=O)CC` [pentan-3-one] + CCCC[n+]1ccc(C#N)cc1.O=S(=O)([N-]S(=O)(=O)C(F)(F)F)C(F)(F)F, the activity coefficient was 0.697 ± 0.06 (308.15 K); 0.746 ± 0.063 (318.15 K); 0.792 ± 0.066 (328.15 K); 0.84 ± 0.07 (338.15 K); 0.889 ± 0.074 (348.15 K); 0.936 ± 0.077 (358.15 K). Besides, the activity coefficient (368.15 K) worked out at 0.984 ± 0.081.

For the compound `CCCC(=O)OC` [methyl butanoate] + CCCC[n+]1ccc(C#N)cc1.O=S(=O)([N-]S(=O)(=O)C(F)(F)F)C(F)(F)F, the activity coefficient runs as follows: (308.15 K) 1.15 ± 0.1; (318.15 K) 1.22 ± 0.1; (328.15 K) 1.28 ± 0.11; (338.15 K) 1.35 ± 0.11; (348.15 K) 1.42 ± 0.12; (358.15 K) 1.48 ± 0.13. The activity coefficient (368.15 K) came to 1.55 ± 0.13.

`CCCc1ccccc1` [propylbenzene] + CCCC[n+]1ccc(C#N)cc1.O=S(=O)([N-]S(=O)(=O)C(F)(F)F)C(F)(F)F: the activity coefficient amounted to 3.8 ± 0.33 (308.15 K); 3.94 ± 0.34 (318.15 K); 4.07 ± 0.35 (328.15 K); 4.21 ± 0.36 (338.15 K); 4.33 ± 0.37 (348.15 K); 4.45 ± 0.38 (358.15 K). Moreover, under “368.15 K”, the activity coefficient was 4.58 ± 0.4.

Regarding `Cc1ccc(C)cc1` [1,4-dimethylbenzene] + CCCC[n+]1ccc(C#N)cc1.O=S(=O)([N-]S(=O)(=O)C(F)(F)F)C(F)(F)F, the activity coefficient was 2.15 ± 0.19 (308.15 K); 2.28 ± 0.2 (318.15 K); 2.4 ± 0.21 (328.15 K); 2.52 ± 0.22 (338.15 K); 2.65 ± 0.23 (348.15 K); 2.77 ± 0.24 (358.15 K). Besides, where the note is “368.15 K”, the activity coefficient was 2.89 ± 0.25.

`CCC(C)CC` [3-methylpentane] + CCCC[n+]1ccc(C#N)cc1.O=S(=O)([N-]S(=O)(=O)C(F)(F)F)C(F)(F)F: the activity coefficient came to 30.7 ± 2.7 (308.15 K); 28.4 ± 2.5 (318.15 K); 26.4 ± 2.3 (328.15 K); 24.7 ± 2.1 (338.15 K); 23.1 ± 2 (348.15 K); 21.7 ± 1.9 (358.15 K). Further, the activity coefficient (368.15 K) turned out to be 20.6 ± 1.8.

In the case of `CC(C)=O` [acetone] + CCCC[n+]1ccc(C#N)cc1.O=S(=O)([N-]S(=O)(=O)C(F)(F)F)C(F)(F)F, the activity coefficient runs as follows: (308.15 K) 0.377 ± 0.039; (318.15 K) 0.403 ± 0.04; (328.15 K) 0.427 ± 0.042; (338.15 K) 0.453 ± 0.043; (348.15 K) 0.479 ± 0.045; (358.15 K) 0.505 ± 0.046. Also, under “368.15 K”, the activity coefficient amounted to 0.531 ± 0.048.

For the compound `C1=CCCCC1` [cyclohexene] + CCCC[n+]1ccc(C#N)cc1.O=S(=O)([N-]S(=O)(=O)C(F)(F)F)C(F)(F)F, the activity coefficient is 7.51 ± 0.65 (308.15 K); 7.4 ± 0.64 (318.15 K); 7.28 ± 0.63 (328.15 K); 7.19 ± 0.62 (338.15 K); 7.1 ± 0.61 (348.15 K); 7.1 ± 0.61 (358.15 K). Where the note is “368.15 K”, the activity coefficient worked out at 6.9 ± 0.6.

Regarding `C=C(C)c1ccccc1` [(1-methylethenyl)benzene] + CCCC[n+]1ccc(C#N)cc1.O=S(=O)([N-]S(=O)(=O)C(F)(F)F)C(F)(F)F, the activity coefficient (308.15 K) turned out to be 1.94 ± 0.17; the activity coefficient (318.15 K) came out at 2.09 ± 0.18; the activity coefficient (328.15 K) is 2.24 ± 0.19; the activity coefficient (338.15 K) was determined as 2.4 ± 0.21; the activity coefficient (348.15 K) worked out at 2.55 ± 0.22; the activity coefficient (358.15 K) was determined as 2.7 ± 0.23. For the same compound, the activity coefficient (368.15 K) was found to be 2.86 ± 0.25.

`C=Cc1ccccc1` [styrene] + CCCC[n+]1ccc(C#N)cc1.O=S(=O)([N-]S(=O)(=O)C(F)(F)F)C(F)(F)F: the activity coefficient is, setting by setting: (308.15 K) 1.28 ± 0.11; (318.15 K) 1.36 ± 0.11; (328.15 K) 1.44 ± 0.12; (338.15 K) 1.52 ± 0.13; (348.15 K) 1.6 ± 0.14; (358.15 K) 1.67 ± 0.14. Also, the activity coefficient (368.15 K) was found to be 1.75 ± 0.15.

On to `C#CCCCCC` [1-heptyne] + CCCC[n+]1ccc(C#N)cc1.O=S(=O)([N-]S(=O)(=O)C(F)(F)F)C(F)(F)F, for which the activity coefficient was found to be 6.92 ± 0.6 (308.15 K); 7.02 ± 0.61 (318.15 K); 7.11 ± 0.61 (328.15 K); 7.21 ± 0.62 (338.15 K); 7.3 ± 0.63 (348.15 K); 7.39 ± 0.64 (358.15 K). Besides, the activity coefficient (368.15 K) worked out at 7.48 ± 0.65.

`CCCC=O` [butanal] + CCCC[n+]1ccc(C#N)cc1.O=S(=O)([N-]S(=O)(=O)C(F)(F)F)C(F)(F)F: the activity coefficient by setting is: (308.15 K) 0.7 ± 0.06; (318.15 K) 0.738 ± 0.062; (328.15 K) 0.773 ± 0.065; (338.15 K) 0.811 ± 0.068; (348.15 K) 0.848 ± 0.071; (358.15 K) 0.884 ± 0.073. The activity coefficient (368.15 K) is 0.917 ± 0.076.

With `CCC(C)(C)OC` [2-methoxy-2-methylbutane] + CCCC[n+]1ccc(C#N)cc1.O=S(=O)([N-]S(=O)(=O)C(F)(F)F)C(F)(F)F, the activity coefficient runs as follows: (308.15 K) 4.33 ± 0.37; (318.15 K) 4.48 ± 0.39; (328.15 K) 4.62 ± 0.4; (338.15 K) 4.76 ± 0.41; (348.15 K) 4.88 ± 0.42; (358.15 K) 5.01 ± 0.43. The activity coefficient (368.15 K) was 5.13 ± 0.44.

Regarding `CC(C)O` [propan-2-ol] + CCCC[n+]1ccc(C#N)cc1.O=S(=O)([N-]S(=O)(=O)C(F)(F)F)C(F)(F)F, the activity coefficient runs as follows: (308.15 K) 2.25 ± 0.19; (318.15 K) 2.08 ± 0.18; (328.15 K) 1.95 ± 0.17; (338.15 K) 1.83 ± 0.16; (348.15 K) 1.73 ± 0.15; (358.15 K) 1.63 ± 0.14.

As for `C1COCCO1` [1,4-dioxane] + CCCC[n+]1ccc(C#N)cc1.O=S(=O)([N-]S(=O)(=O)C(F)(F)F)C(F)(F)F, the activity coefficient runs as follows: (308.15 K) 0.419 ± 0.041; (318.15 K) 0.461 ± 0.044; (328.15 K) 0.502 ± 0.046; (338.15 K) 0.544 ± 0.049; (348.15 K) 0.587 ± 0.052; (358.15 K) 0.631 ± 0.055. The activity coefficient (368.15 K) stood at 0.676 ± 0.058.
